Test results as given in publication PMC2923755, “Thermolability of mutant MMACHC protein in the vitamin B12-responsive cblC disorder” (Molecular Genetics and Metabolism, 2010).
Numbering of substitutions follows the chain as printed.

Tests used:
[1] = molecular target: T1, His-MMACHC-wt (Homo sapiens, UniProt Q9Y4U1); set-up: method as in PMID 18779575; settings: cited from earlier work
T1 construct: made in house; host or cells: E. coli BL21 DE3
T1 sequence (Q9Y4U1 1-282): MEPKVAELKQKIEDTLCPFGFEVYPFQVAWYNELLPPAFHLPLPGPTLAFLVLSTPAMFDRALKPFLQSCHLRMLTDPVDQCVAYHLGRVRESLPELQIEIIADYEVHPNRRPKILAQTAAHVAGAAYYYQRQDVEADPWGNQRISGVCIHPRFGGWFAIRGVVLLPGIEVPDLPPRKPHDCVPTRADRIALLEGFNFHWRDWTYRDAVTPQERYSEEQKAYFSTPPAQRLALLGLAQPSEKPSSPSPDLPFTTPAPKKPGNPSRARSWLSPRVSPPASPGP

[2] = molecular target: T2, His-MMACHC-R161Q (Homo sapiens, UniProt Q9Y4U1, R161Q); assay: UV-visible absorption spectra, base-on/base-off binding; settings: 5 μM cobalamin, 50 μM protein, pH 7.0
T2 construct: made in house; host or cells: E. coli BL21 DE3
T2 sequence (Q9Y4U1 1-282 R161Q): T1 sequence (Q9Y4U1 1-282) with R161Q
Method: […] In order to retain the high amounts of protein necessary for these experiments, the His-tag (wt and R161Q) or GST-tag (wt protein) was left on. Absorption spectrum measurements were carried out using a MOS-250 spectrometer and recorded using Bio-Kine 32 v4.20 software.
(§1) In order to determine whether the R161Q mutation interferes with the ability of MMACHC to support this transition, we examined the UV–visible absorption spectra for the proteins bound to AdoCbl, as an example of an alkylcobalamin, as well as for the proteins bound to CNCbl and OHCbl. Each cobalamin was added at a concentration of […] (Fig. 5). To determine whether the cobalamin was base-on or base-off, in the case of CNCbl both base-on and base-off spectra were determined for the free vitamin, as previously reported [[12,14]]. […] Confirming our earlier data, GST-tagged MMACHC-wt bound CNCbl in the base-off state (Table 2). […] Both MMACHC-wt and MMACHC-R161Q bound AdoCbl in the base-off state (Fig. 5; Table 2). […] Finally, neither MMACHC-wt nor MMACHC-R161Q modified OHCbl binding, which retained the base-on profile regardless of the MMACHC species present (Fig. 5; Table 2).

[3] = UV-visible absorption spectra of free cobalamin; format: physicochemical; settings: base-on, nm
Method: (§2) To determine base-on or base-off binding, 5 μM of the appropriate cobalamin or cobinamde in buffer (100 mM Tris, pH 7.0), was incubated in the dark with 400 μl total of 50 μM MMACHC protein (wild-type or R161Q), prepared in the same buffer, or alone, for 5 min at room temperature. In order to retain the high amounts of protein necessary for these experiments, the His-tag (wt and R161Q) or GST-tag (wt protein) was left on. Absorption spectrum measurements were carried out using a MOS-250 spectrometer and recorded using Bio-Kine 32 v4.20 software.
as §1

[4] = molecular target: T1, His-MMACHC-wt; assay: UV-visible absorption spectra, base-on/base-off binding; settings: 5 μM cobalamin, 50 μM protein, pH 7.0
Method: as §2, §1

[5] = molecular target: T3, GST-MMACHC-wt (Homo sapiens, UniProt Q9Y4U1); assay: as above; settings: 5 μM cobalamin, 50 μM protein, pH 7.0
T3 construct: made in house
T3 sequence (Q9Y4U1 1-282): T1 sequence (Q9Y4U1 1-282)
Method: as §2, §1

[6] = molecular target: T4, MMACHC-R161Q (Homo sapiens, UniProt Q9Y4U1, R161Q); assay: Differential scanning fluorimetry (DSF), stabilization by cobalamins; format: binding; settings: for ΔTm max: Tm at 50 μM ligand minus Tm at 0 μM ligand; for ΔTm max / AC50: DSF; for AC50: half-maximal effective ligand concentration for stabilization, 3 μM protein, fit of ΔTm vs ligand concentration
T4 construct: His-tag (N, cleaved yes); made in house; host or cells: E. coli BL21 DE3
T4 sequence (Q9Y4U1 1-282 R161Q): T1 sequence (Q9Y4U1 1-282) with R161Q
Method: (§3) DSF was performed and analyzed as described in Niesen et al., with minor modifications. Purified MMACHC proteins were diluted to 0.1 mg/ml (3 μM) in buffer (10 mM HEPES pH 7.5, 0.5 M NaCl, 5% glycerol) with 1:1000 Sypro Orange (Invitrogen) and run in triplicate. The proteins were heated from 5 to 75 °C with a ramp rate of 1 °C/min in a thermocycler (Bio-rad C1000 Thermocycler, CFX96 Real-time system). All graphs were normalized so that minimum fluorescence was set to 0 and maximum fluorescence set to 1. […] Final graphs and AC50’s were generated using Kadeidagraph 4.0 software (Synergy Software, Reading, PA). AC50’s were determined by fitting the ΔTm vs. ligand concentration curves to the equation ΔTm = ΔTm max[S]/(AC50 + [S]) where ΔTm is the change in melting temperature (Tm[protein + ligand] − Tm[protein]), ΔTm max is the maximal change in Tm at saturating (50 μM) ligand concentration and [S] is the ligand concentration.
(§4) Wild-type (MMACHC-wt) and mutant (MMACHC-R161Q) MMACHC were expressed and purified to >95% purity, with His-tag removed, as judged by SDS–PAGE (Fig. 2A). In order to investigate the thermostability of MMACHC we used DSF, a method that measures protein stability and ligand-induced changes in stability [[20,21]]. DSF uses an environmentally sensitive dye, such as Sypro orange, to monitor protein-unfolding caused by heat denaturation. As the protein unfolds, the dye, which has a higher fluorescence quantum yield in nonpolar environments than in aqueous media, binds to hydrophobic regions of the protein, causing a large increase in fluorescence [[22,23]]. Protein stability is expressed as the melting point of the protein (Tm), that is, the transition midpoint of the fluorescence curve, corresponding to the temperature at which half of the protein molecules are folded and half are unfolded. […] Even lower was the stability of MMACHC-R161Q (Tm = 37.1 ± 0.7 °C) (Fig. 2B). The difference in Tm was small but nonetheless significant (p < 0.01). A second difference between the wild-type and mutant proteins was the shape of the unfolding curves, with the unfolding of the mutant protein showing high cooperativity indicating a two-state unfolding mechanism while the unfolding of the wild-type protein stretched over a larger temperature range and comprised two phases (Fig. 2B; also Fig. 3A at 0 μM OHCbl).

[7] = molecular target: T5, MMACHC-wt (Homo sapiens, UniProt Q9Y4U1); assay: as above; format: binding; settings: for ΔTm max: Tm at 50 μM ligand minus Tm at 0 μM ligand; for AC50: half-maximal effective ligand concentration for stabilization, 3 μM protein, fit of ΔTm vs ligand concentration
T5 construct: His-tag (N, cleaved yes); made in house; host or cells: E. coli BL21 DE3
T5 sequence (Q9Y4U1 1-282): T1 sequence (Q9Y4U1 1-282)
Method: as §3, §4

Base-on/off [2]	α/β-Peak ([2]; nm)	α/β-Peak [3]	Base-on/off [4]	α/β-Peak ([4]; nm)	Base-on/off [5]	α/β-Peak ([5]; nm)	ΔTm max [6]	AC50 [6]	AC50 of R161Q relative to wild-type ([6]; times/fold less effective than with MMACHC-wt)	ΔTm max [7]	AC50 [7]	Structure (SMILES)	binding conformation (base-on/off) [1]
Off	461 nm	524 nm	base-off and Off	460 nm	Off	472 nm	13.2 ± 0.1 °C	1100 ± 100 nM	similar	15.5 ± 0.1 °C	900 ± 100 nM	CC1=C2N=C(C=C3N=C(C(C)=C4[N-]C(C(CC(N)=O)C4(C)CCC(=O)NCC(C)OP(=O)([O-])OC4C(CO)OC(n5cnc6cc(C)c(C)cc65)C4O)C4(C)N=C1C(CCC(N)=O)C4(C)CC(N)=O)C(CCC(N)=O)C3(C)C)C(CCC(N)=O)C2(C)CC(N)=O.[CH2-]C1OC(n2cnc3c(N)ncnc32)C(O)C1O.[Co+3] (stereo not shown) [AdoCbl, 5′-deoxyadenosylcobalamin]	base-off
							9.3 ± 0.3 °C	8000 ± 1600 nM		12.7 ± 0.4 °C	2100 ± 300 nM	C/C1=C2/[N-][C@H]([C@H](CC(N)=O)[C@@]2(C)CCC(=O)NC[C@H](C)OP(=O)([O-])O[C@H]2[C@@H](O)[C@@H](n3cnc4cc(C)c(C)cc43)O[C@@H]2CO)[C@]2(C)N=C(/C(C)=C3N=C(/C=C4N=C1[C@@H](CCC(N)=O)C\4(C)C)[C@@H](CCC(N)=O)[C@]\3(C)CC(N)=O)[C@@H](CCC(N)=O)[C@]2(C)CC(N)=O.[CH3-].[Co+3] [MeCbl, methylcobalamin]	base-off

Structure (SMILES)	Base-on/off [2]	α/β-Peak ([2]; nm)	α/β-Peak [3]	Base-on/off [4]	α/β-Peak ([4]; nm)	Base-on/off [5]	α/β-Peak ([5]; nm)	ΔTm max [6]	AC50 [6]	AC50 of R161Q relative to wild-type ([6]; times/fold less effective than with MMACHC-wt)	ΔTm max [7]	AC50 [7]	binding conformation (base-on/off) [1]
C/C1=C2/[N-]C([C@H](CC(N)=O)[C@@]2(C)CCC(=O)NCC(C)O)[C@]2(C)N=C(/C(C)=C3N=C(/C=C4N=C1[C@@H](CCC(N)=O)C\4(C)C)[C@@H](CCC(N)=O)[C@]\3(C)CC(N)=O)[C@@H](CCC(N)=O)[C@]2(C)CC(N)=O.[C-]#N.[C-]#N.[Co] (stereo partly shown) [Cbi, dicyanocobinamide]								6.8 ± 0.2 °C	9100 ± 1600 nM		9.8 ± 0.2 °C	1300 ± 200 nM	
